Legend:
[1] = molecular target: T1, CDK5/p25 (Homo sapiens, UniProt Q00535); assay: Enzymatic assay for CDK5 (FRET based LANCE Ultra kinase assay); type: biochemical; conditions: read-out: CDK5 enzymatic activity (IC50 range)
T1 construct: purchased Invitrogen PR8543B
Method in brief: (§1)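 LANCE Ultra TR-FRET: ULight-MBP peptide (68 nM) with ATP at Km, […], 60 min at 23° C. EDTA plus Eu-anti-phospho-MBP added, another 60 min, then 665/615 nm emission read. Compounds tested as 8-dose 4-fold DMSO dilutions.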

[2] = test system: H460; assay: Cellular H460 viability assay (CellTiter-Glo, 72 hours); type: cell-based; conditions: Homo sapiens, NCI-H460
Method in brief: (§2)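 Luminescent ATP read-out (CellTiter-Glo) after 72 h compound exposure at 37 °C/5% CO2; duplicate wells; vehicle control DMSO <0.1% final; seeding density set per cell line.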

[3] = test system: MV4-11; assay: Cellular MV4-11 viability assay (CellTiter-Glo, 72 hours); type: cell-based; conditions: Homo sapiens
Method in brief: as §2

[4] = test system: RPMI-8226; assay: Cellular RPMI-8226 viability assay (CellTiter-Glo, 72 hours); type: cell-based; conditions: Homo sapiens
Method in brief: as §2

[5] = molecular target: T2, CDK1/Cyclin B (Homo sapiens, UniProt P06493); assay: Enzymatic assay for CDK1 (FRET based LANCE Ultra kinase assay); type: biochemical; conditions: read-out: CDK1 enzymatic activity (IC50 range)
T2 construct: purchased Invitrogen PR4768C
T2 sequence (P06493 whole entry): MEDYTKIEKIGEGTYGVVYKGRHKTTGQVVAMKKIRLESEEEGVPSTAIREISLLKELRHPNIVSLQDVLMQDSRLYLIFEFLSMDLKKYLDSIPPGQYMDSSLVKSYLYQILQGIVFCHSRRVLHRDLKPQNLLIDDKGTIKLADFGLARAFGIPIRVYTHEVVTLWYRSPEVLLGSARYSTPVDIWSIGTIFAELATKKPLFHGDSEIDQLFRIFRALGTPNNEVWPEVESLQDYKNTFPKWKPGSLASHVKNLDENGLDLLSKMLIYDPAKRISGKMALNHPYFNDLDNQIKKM
T2 sequence (P14635 whole entry partner): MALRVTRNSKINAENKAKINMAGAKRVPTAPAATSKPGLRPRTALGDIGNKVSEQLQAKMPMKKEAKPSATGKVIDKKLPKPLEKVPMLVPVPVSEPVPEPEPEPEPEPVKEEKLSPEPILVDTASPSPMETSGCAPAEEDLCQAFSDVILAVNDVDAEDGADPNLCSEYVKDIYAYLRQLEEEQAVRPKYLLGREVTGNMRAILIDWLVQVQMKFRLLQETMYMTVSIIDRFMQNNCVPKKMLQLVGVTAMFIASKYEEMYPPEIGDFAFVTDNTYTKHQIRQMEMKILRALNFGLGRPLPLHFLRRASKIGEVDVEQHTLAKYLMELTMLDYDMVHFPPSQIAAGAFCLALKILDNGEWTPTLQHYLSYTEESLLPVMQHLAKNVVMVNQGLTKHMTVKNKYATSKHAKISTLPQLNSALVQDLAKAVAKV
Method in brief: as §1

[6] = molecular target: T3, CDK7/Cyclin H/MNAT1 (Homo sapiens, UniProt P50613); assay: Enzymatic assay for CDK7 (FRET based LANCE Ultra kinase assay); type: biochemical; conditions: for IC50: read-out: CDK7 enzymatic activity (IC50 range)
T3 construct: purchased Invitrogen PR6749B
T3 sequence (P50613 whole entry): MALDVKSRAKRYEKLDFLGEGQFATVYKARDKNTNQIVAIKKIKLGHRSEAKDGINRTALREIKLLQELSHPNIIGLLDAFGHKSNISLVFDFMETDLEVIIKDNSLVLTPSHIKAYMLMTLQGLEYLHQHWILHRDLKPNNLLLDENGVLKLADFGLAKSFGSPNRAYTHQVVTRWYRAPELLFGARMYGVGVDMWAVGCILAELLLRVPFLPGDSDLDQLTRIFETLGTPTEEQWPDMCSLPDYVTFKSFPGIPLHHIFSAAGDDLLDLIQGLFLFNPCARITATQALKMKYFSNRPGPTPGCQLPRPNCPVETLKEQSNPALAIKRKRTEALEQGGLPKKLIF
T3 sequence (P51946 whole entry partner): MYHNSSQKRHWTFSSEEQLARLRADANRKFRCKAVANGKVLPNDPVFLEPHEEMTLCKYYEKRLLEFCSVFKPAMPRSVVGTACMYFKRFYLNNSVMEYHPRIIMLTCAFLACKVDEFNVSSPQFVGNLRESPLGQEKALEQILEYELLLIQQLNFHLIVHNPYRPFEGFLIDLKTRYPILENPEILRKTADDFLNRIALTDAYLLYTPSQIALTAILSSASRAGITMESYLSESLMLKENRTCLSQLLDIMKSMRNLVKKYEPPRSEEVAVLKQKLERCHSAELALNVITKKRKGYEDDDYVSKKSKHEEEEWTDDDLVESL
T3 sequence (P51948 whole entry partner): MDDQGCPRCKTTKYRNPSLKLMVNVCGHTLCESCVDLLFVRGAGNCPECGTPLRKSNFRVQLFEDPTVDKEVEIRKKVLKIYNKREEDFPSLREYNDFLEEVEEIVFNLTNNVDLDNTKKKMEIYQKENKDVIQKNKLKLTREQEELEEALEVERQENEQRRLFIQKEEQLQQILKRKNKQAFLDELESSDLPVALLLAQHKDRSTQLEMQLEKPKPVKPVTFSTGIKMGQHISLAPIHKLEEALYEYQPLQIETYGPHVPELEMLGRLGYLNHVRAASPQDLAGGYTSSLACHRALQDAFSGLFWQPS
Method in brief: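 Inhibition was measured at Km ATP by time-resolved FRET between a Eu anti-phospho antibody and a phosphorylated ULight peptide. The enzyme was the purified CDK7/cyclin complex, and data were curve-fitted.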

[7] = test system: MOLT-4; assay: Cellular MOLT-4 viability assay (CellTiter-Glo, 72 hours); type: cell-based; conditions: Homo sapiens, MOLT4 viability assay
Method in brief: as §2

[8] = molecular target: T4, CDK2/Cyclin A (Homo sapiens, UniProt P24941); assay: Enzymatic assay for CDK2 (FRET based LANCE Ultra kinase assay); type: biochemical; conditions: read-out: CDK2 enzymatic activity (IC50 range)
T4 construct: purchased Invitrogen PV6290
Method in brief: as §1

[9] = test system: MM.1S; assay: Cellular MM.1S viability assay (CellTiter-Glo, 72 hours); type: cell-based; conditions: Homo sapiens, MM1.S
Method in brief: (§3)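 Compound exposure lasted 72 h at 37° C, 5% CO2, over 0.0015–10 uM, DMSO kept under 0.1%, with dosing 24 h after seeding. Seeding: A2780 1×10^3, OVCAR-3 5×10^3, MM.1S 1×10^4 cells/well in 10% FBS RPMI-1640. Duplicate CellTiter-Glo luminescence readout.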

[10] = test system: HCT116; assay: Cellular HCT116 viability assay (CellTiter-Glo, 72 hours); type: cell-based; conditions: Homo sapiens, HCT-116
Method in brief: as §2

[11] = test system: A2780; assay: Cellular A2780 viability assay (CellTiter-Glo, 72 hours); type: cell-based; conditions: Homo sapiens
Method in brief: as §3

T1 sequence (Q00535 whole entry): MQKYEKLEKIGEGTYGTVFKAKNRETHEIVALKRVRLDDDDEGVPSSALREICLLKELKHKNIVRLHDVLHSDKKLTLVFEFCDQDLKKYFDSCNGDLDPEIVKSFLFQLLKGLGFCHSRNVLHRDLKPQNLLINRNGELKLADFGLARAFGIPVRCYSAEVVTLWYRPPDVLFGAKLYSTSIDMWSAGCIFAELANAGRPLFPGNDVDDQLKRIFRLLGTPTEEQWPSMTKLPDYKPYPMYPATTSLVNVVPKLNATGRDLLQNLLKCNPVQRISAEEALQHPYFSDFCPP
T1 sequence (Q15078 99-307 partner limits assumed): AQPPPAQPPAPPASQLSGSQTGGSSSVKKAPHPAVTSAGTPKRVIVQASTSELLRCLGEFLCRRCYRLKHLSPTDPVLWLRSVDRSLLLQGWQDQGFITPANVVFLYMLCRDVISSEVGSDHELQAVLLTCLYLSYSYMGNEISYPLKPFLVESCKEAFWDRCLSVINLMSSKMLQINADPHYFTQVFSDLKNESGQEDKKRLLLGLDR

| IC50 [1] [µM] | IC50 [2] [µM] | IC50 [3] [µM] | IC50 [4] [µM] | IC50 [5] [µM] | CDK1/CDK7: Selectivity of CDK7 inhibition over CDK1 inhibition [6] | CDK2/CDK7: Selectivity of CDK7 inhibition over CDK2 inhibition [6] | CDK5/CDK7: Selectivity of CDK7 inhibition over CDK5 inhibition [6] | IC50 [6] [µM] | IC50 [7] [µM] | IC50 [8] [µM] | IC50 [9] [µM] | IC50 [10] [µM] | IC50 [11] [µM] | SMILES |
| --- | --- | --- | --- | --- | --- | --- | --- | --- | --- | --- | --- | --- | --- | --- |
| > 1 | 1 to 10 | 1 to 10 | 1 to 10 | > 1 | A (A=greater than 200 fold) | A (A=greater than 200 fold) | A (A=greater than 200 fold) | < 0.1 | > 10 | > 1 | 1 to 10 |  |  | COc1cccc(-n2cccn2)c1CNc1nc(N2CCC(N)CC2)nc2c(C(C)C)cnn12 [Compound 39] |
| > 1 | < 1 | < 1 | 1 to 10 | > 1 | A (A=greater than 200 fold) | A (A=greater than 200 fold) | A (A=greater than 200 fold) | < 0.1 | 1 to 10 | > 1 | 1 to 10 | < 1 |  | Cc1cccc(-n2cccn2)c1CNc1nc(N2CCC(N)CC2)nc2c(C(C)C)cnn12 [Compound 43] |
| > 1 | 1 to 10 | 1 to 10 | 1 to 10 | > 1 | A (A=greater than 200 fold) | A (A=greater than 200 fold) | A (A=greater than 200 fold) | < 0.1 | 1 to 10 | > 1 | 1 to 10 |  |  | CC(C)c1cnn2c(NCc3c(-n4cccn4)cccc3C(F)(F)F)nc(N3CCC(N)CC3)nc12 [Compound 46] |
| 0.1 to 1 | < 1 | < 1 | 1 to 10 | > 1 | A (A=greater than 200 fold) | A (A=greater than 200 fold) | A (A=greater than 200 fold) | < 0.1 | 1 to 10 | > 1 | ≤ 1 | < 1 |  | CC(C)c1cnn2c(NCc3ccccc3OC3CCN(C)CC3)nc(N3CCC(N)CC3)nc12 [Compound 66] |
| > 1 | 1 to 10 | 1 to 10 | 1 to 10 | > 1 | A (A=greater than 200 fold) | A (A=greater than 200 fold) | A (A=greater than 200 fold) | < 0.1 | > 10 | > 1 | 1 to 10 |  |  | CC(C)c1cnn2c(NCc3ccccc3-c3nccc4ccccc34)nc(N3CCC(N)CC3)nc12 [Compound 79] |
| > 1 | 1 to 10 | < 1 | 1 to 10 | > 1 | A (A=greater than 200 fold) | A (A=greater than 200 fold) | A (A=greater than 200 fold) | < 0.1 | > 10 | > 1 | > 10 | 1 to 10 |  | CC(C)c1cnn2c(NCc3ccccc3-c3nccc4c(NC(=O)CCCN(C)C)cccc34)nc(N3CCC(N)CC3)nc12 [Compound 90] |
| > 1 | < 1 | < 1 | 1 to 10 | > 1 | A (A=greater than 200 fold) | A (A=greater than 200 fold) | A (A=greater than 200 fold) | < 0.1 | 1 to 10 | > 1 | ≤ 1 | < 1 |  | CC(C)c1cnn2c(NCc3ccccc3-n3cccn3)nc(-c3cccc(C(=O)N4CCC(N)CC4)c3)nc12 [Compound 171] |

| SMILES | IC50 [1] [µM] | IC50 [2] [µM] | IC50 [3] [µM] | IC50 [4] [µM] | IC50 [5] [µM] | CDK1/CDK7: Selectivity of CDK7 inhibition over CDK1 inhibition [6] | CDK2/CDK7: Selectivity of CDK7 inhibition over CDK2 inhibition [6] | CDK5/CDK7: Selectivity of CDK7 inhibition over CDK5 inhibition [6] | IC50 [6] [µM] | IC50 [7] [µM] | IC50 [8] [µM] | IC50 [9] [µM] | IC50 [10] [µM] | IC50 [11] [µM] |
| --- | --- | --- | --- | --- | --- | --- | --- | --- | --- | --- | --- | --- | --- | --- |
| CC(C)c1cnn2c(NCc3c(Cl)cccc3-n3cccn3)nc(N3CCC(N)CC3)nc12 [Compound 38] | 0.1 to 1 | < 1 | < 1 | < 1 | > 1 | A (A=greater than 200 fold) | A (A=greater than 200 fold) | B (B=less than 200 fold, but greater than 20 fold) | < 0.1 | 1 to 10 | > 1 | ≤ 1 |  |  |
| CC(C)c1cnn2c(NCc3c(F)cccc3-n3cccn3)nc(N3CCC(N)CC3)nc12 [Compound 42] | 0.1 to 1 | < 1 | < 1 | < 1 | > 1 | A (A=greater than 200 fold) | A (A=greater than 200 fold) | B (B=less than 200 fold, but greater than 20 fold) | < 0.1 | 1 to 10 | 0.1 to 1 | ≤ 1 |  |  |
| CC(C)c1cnn2c(NCc3ccccc3-n3cc4ccccc4n3)nc(N3CCC(N)CC3)nc12 [Compound 72] | 0.1 to 1 | < 1 | < 1 | < 1 | 0.1 to 1 | A (A=greater than 200 fold) | B (B=less than 200 fold, but greater than 20 fold) | B (B=less than 200 fold, but greater than 20 fold) | < 0.1 | < 1 | 0.1 to 1 | ≤ 1 | < 1 |  |
| CC(C)c1cnn2c(NCc3ccccc3-c3ccc4ccccc4n3)cc(N3CCC(N)CC3)nc12 [Compound 73] | 0.1 to 1 | < 1 | < 1 | 1 to 10 | > 1 | A (A=greater than 200 fold) | A (A=greater than 200 fold) | B (B=less than 200 fold, but greater than 20 fold) | < 0.1 | 1 to 10 | > 1 | ≤ 1 | < 1 |  |
| CC(C)c1cnn2c(NCc3ccccc3-c3cc4ccccc4[nH]3)nc(N3CCC(N)CC3)nc12 [Compound 102] | < 0.1 | < 1 | < 1 | < 1 | 0.1 to 1 | B (B=less than 200 fold, but greater than 20 fold) | B (B=less than 200 fold, but greater than 20 fold) | C (C=less than 20 fold) | < 0.1 |  | 0.1 to 1 | ≤ 1 | < 1 | ≤ 1 |
| CC(C)c1cnn2c(NCc3ccccc3-n3cc4ccc(C(F)(F)F)cc4n3)nc(N3CCC(N)CC3)nc12 [Compound 104] | 0.1 to 1 | < 1 | < 1 | < 1 | > 1 | A (A=greater than 200 fold) | A (A=greater than 200 fold) | B (B=less than 200 fold, but greater than 20 fold) | < 0.1 | 1 to 10 | > 1 | ≤ 1 | < 1 |  |
| CC(C)c1cnn2c(NCc3ccccc3-n3cc4cc(F)ccc4n3)nc(N3CCC(N)CC3)nc12 [Compound 108] | 0.1 to 1 | < 1 | < 1 | < 1 | 0.1 to 1 | B (B=less than 200 fold, but greater than 20 fold) | B (B=less than 200 fold, but greater than 20 fold) | B (B=less than 200 fold, but greater than 20 fold) | < 0.1 | 1 to 10 | 0.1 to 1 | ≤ 1 | < 1 |  |

Reference: US11945822B2, “Pyrazolo-triazine and/or pyrazolo-pxrimidine derivatives as selective inhibitor of cyclin dependent kinase” (QURIENT CO., LTD., priority 2018, dated 2024)
